Data: the METLIN SMRT retention time set (Domingo-Almenara et al. 2019)

Assay: gradient 5% acetonitrile 3 min, to 50% in 2 min, to 85% in 15 min, held 3 min, 100 µL/min
Conditions: column: Zorbax Extend-C18 2.1 x 50 mm; eluents: water / acetonitrile, 0.1% formic acid
Summary of the method: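 Data were gathered over 3 months by HPLC coupled to a quadrupole time-of-flight mass spectrometer, operated in positive and negative ionization mode. Mixtures of ~100 pure standards ran on a Zorbax Extend-C18 column (2.1 × 50 mm, 1.8 μm) at 100 μL/min, with water and acetonitrile each containing 0.1% formic acid and dead and dwell volumes of 40 μL and 900 μL. Retention time was read from adduct peaks picked by computer and checked manually.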

| Compound | RP-LC retention time [s] |
| --- | --- |
| COC(=O)c1cnc2nc(C)ccc2c1Nc1ccc(C)c(F)c1 | 696 |
| Oc1cc2c(cc1O)[C@H]1c3ccccc3CN[C@@H]1CC2 | 628 |
| COc1ccc(S(=O)(=O)Nc2ccc3oc(-c4ccccc4OC)cc(=O)c3c2)cc1 | 686 |
| COCCN1C(=O)c2ccccc2C(C(=O)NCCCN2CCOCC2)C1c1cccs1 (centres undefined) | 805 |
| O=C(Cn1nc2c(Oc3ccc(Cl)cc3)nccn2c1=O)NCc1ccco1 | 804 |
| O=C(Nc1nnc(-c2cccs2)o1)c1cc(Cl)ccc1Cl | 764 |
| O=C(Cc1c(F)cccc1Cl)N1C[C@@H]2C[C@H]1C[C@@H]2NS(=O)(=O)c1cccs1 | 766 |
| CCOc1ccc(-n2c(CN3CCN(C(=O)NCC(C)C)CC3)nc3cccnc32)cc1 | 654 |
| Cc1sc2ccn(CC(C)C)c(=O)c2c1C(=O)NCc1ccc(F)cc1 | 917 |
| CN(C)c1ccc(C(=O)NC2CCN(c3cc(-c4ccc(F)cc4)[nH]n3)C2)cc1 (centres undefined) | 733 |
| Cc1[nH]c(C(=O)N2CCCC(C(=O)NC(C)CCc3ccccc3)C2)c(C)c1C(=O)OC(C)C (centres undefined) | 955 |
| Cc1nc([C@@H]2CN(Cc3ccc(Br)o3)C[C@H]2C(N)=O)n[nH]1 | 556 |
| CCC(=O)NC1Cc2ccccc2C(c2ccccc2)C1 (centres undefined) | 997 |
| COc1cc2ncc(S(=O)(=O)c3ccc(Cl)cc3)c(N3CCN(C)CC3)c2cc1OC | 634 |
| CCOc1cc(C(=O)NC2CCN(c3cc(-c4ccc(Cl)cc4)[nH]n3)C2)cc(OCC)c1OCC (centres undefined) | 927 |
| Fc1cc(-c2cccc3ncc(-c4cnn(C5CCNCC5)c4)nc23)cc(F)c1CN1CCOCC1 | 611 |
| O=C(Nc1ccc(F)cc1)N1CCC(n2cnc3ccc(Cl)cc3c2=O)CC1 | 828 |
| COc1ccc(-c2c(C)noc2NC(C)=O)cc1S(=O)(=O)Nc1ccccc1Cl | 783 |
| O=C(COc1ccccc1)Nc1nc(-c2ccccc2)cs1 | 1050 |
| Cc1ccccc1-c1noc(C2CCCN2C(=O)Nc2cccc(Cl)c2)n1 (centres undefined) | 1080 |
| O=C(NCCCN1CCCC1)c1ccc2nc(Cc3ccccc3)oc2c1 | 642 |
| COc1ccc(-c2noc(C3CCCN3C(=O)Nc3ccccc3C(F)(F)F)n2)cc1 (centres undefined) | 1010 |

| Compound | RP-LC retention time [s] |
| --- | --- |
| Cc1ccc(Cn2c(=O)n(CCNC(=O)C3CCC3)c3ncccc32)cc1 | 779 |
| O=C(Cn1nc2c3cc(-c4ccc(F)cc4)nn3ccn2c1=O)NC1CCCC1 | 824 |
| Cc1nc2cccnc2n1C1CCN(C(=O)Nc2ccc3c(c2)OCCO3)CC1 | 612 |
| CCN1C(=O)C(CC(=O)NCCCOC)Sc2ncccc21 (centres undefined) | 620 |
| Cc1ccc(-c2cc(NC(=O)c3cccc(N(C)C)c3)on2)s1 | 1050 |
| CCn1c(C(=O)NCc2ccc(N(C)C)cc2)cc2c(-c3cccs3)nn(-c3ccccc3)c21 | 906 |
| CC(C)Oc1ccc(CNC(=O)C2CCN(S(=O)(=O)c3ccc4c(c3)NC(=O)CO4)CC2)cc1 | 821 |
| Cc1cccc(NS(=O)(=O)c2c[nH]c3ncccc23)c1C | 762 |
| COc1ccc(-c2nc3ccccn3c2NC(=O)c2ccc(Cl)c([N+](=O)[O-])c2)cc1 | 720 |
| CCC(C)NS(=O)(=O)c1cc(-c2nnc(-c3ccccc3)o2)ccc1F (centres undefined) | 966 |
| CCCCOc1ccc(NC(=O)c2cc(=O)c3ccc(C)cc3o2)c2cccnc12 | 722 |
| COc1ccc(NC(=O)C(C)C2CCN(C(=O)Nc3ccc(Cl)cc3)CC2)cc1 (centres undefined) | 854 |
| CCc1ccccc1S(=O)(=O)Nc1ccc2c(c1)nc(-c1ccc(C(=O)N(CC)CC)cc1)n2C | 739 |
| Cc1ccc(Cn2cc(-c3ccncc3)cc2C(=O)N(C)Cc2ccccc2)cc1 | 751 |
| Cc1ccccc1S(=O)(=O)N1CCC(OCCOCc2ccccc2)CC1 | 1130 |
| CCCNC(=O)CCc1cc2cc(OC)ccc2[nH]c1=O | 634 |
| O=S(=O)(Cc1c(F)cccc1Cl)N1CCC(CN2CCCCCC2)CC1 | 695 |
| Cc1cc(C)cc(NC(=O)C2CCCN2S(C)(=O)=O)c1 (centres undefined) | 782 |
| COc1ccc(-c2noc(CSc3nc4cc5c(cc4c(=O)n3CC3CCCO3)OCO5)n2)cc1 (centres undefined) | 1090 |
| COc1ccc(C2(C(=O)N3CC(c4nc(CCOCC5CCOCC5)no4)C3)CC2)cc1 | 812 |
| Cn1nc(C(=O)N2CCCC(C(=O)Nc3ccccc3)C2)c2c1CCN(C(=O)C(C)(C)C)C2 (centres undefined) | 745 |
| O=C(Nc1cccc(OCc2nnc(-c3ccc(Cl)cc3)o2)c1)C1CCC1 | 978 |

| Compound | RP-LC retention time [s] |
| --- | --- |
| Cc1nn2c(=O)cc(CSc3nnc(-c4ccc5c(c4)OCO5)o3)nc2s1 | 713 |
| CC(C)CNC(=O)C1CCN(c2cncnc2N2CCOCC2)CC1 | 582 |
| Cc1ccc(C)c(NC(=O)Nc2c(-c3ccc(F)cc3)nc3ccccn23)c1 | 697 |
| CN1C(=O)Cc2ccccc2C1C(=O)NCc1ccco1 (centres undefined) | 668 |
| COc1ccc(-n2c(=O)n(C)c(=O)c3cc(C(=O)Nc4ccc(F)c(F)c4)cnc32)cc1 | 948 |
| Cc1ccccc1C(=O)N1C(C(=O)NCC(C)C)COC12CCN(C(=O)C(C)(C)C)CC2 (centres undefined) | 782 |
| CC1=C(c2ccc(C)cc2)S(=O)(=O)N=C1N1CCCN(C(=O)c2ccsc2)CC1 | 821 |
| CC(=O)c1ccc(NC(=O)c2[nH]c3cc(C)sc3c2CN(C)C)cc1 | 638 |
| CCN1C(=O)c2c(C(=O)N3CCOCC3)ncn2CC1(C)C(=O)NCc1ccc(F)cc1 (centres undefined) | 678 |
| Cc1ccc(C2Cn3nnc(-c4nc(-c5cccc(F)c5)no4)c3CO2)c(C)c1 (centres undefined) | 1300 |
| COc1ccc(C(=O)Nc2ccc3c(c2)Sc2ncccc2C(=O)N3C)cc1 | 752 |
| CCN1CCC(N(Cc2ccc3c(c2)OCO3)C(=O)Nc2cc(Cl)ccc2C(=O)OC)CC1 | 774 |
| COc1ccc(OC)c(NC2=NS(=O)(=O)C(c3ccccc3)=C2C)c1 | 948 |
| Cc1ccc(C(=O)N2CCN(c3nnc4cccc(C)n34)CC2)cc1F | 667 |
| Cc1ccc(-c2nc3n(CC(=O)NCC4CCCO4)c4c(c(=O)n3n2)CCC4)cc1 (centres undefined) | 720 |
| COc1ccc(-n2c(=O)c3sccc3n(Cc3nc(-c4ccc(F)c(Cl)c4)no3)c2=O)cc1 | 1040 |
| Cn1cc2c3c(cccc31)CN(C(=O)c1c(F)cccc1F)CC2 | 920 |
| O=C(CN1C(=O)c2ccccc2C1=O)NCc1nnnn1-c1ccc(Cl)cc1 | 722 |
| Cn1ncc2cc3c(Nc4ccc(Cl)cc4)cccc3nc21 | 670 |
| CCOC(=O)c1ccc(Nc2nc(C(=O)OCC)nc3ccccc23)cc1 | 896 |
